Test results reported in ChEMBL document CHEMBL1201862, “PubChem BioAssay data set” (2004).
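Assay format: 96-well plates, 48-hour exposure. GI50: concentration for 50% inhibition of growth.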 Active and inactive are the calls of the source. Cut-off read from the data, not from the text of the source: active = GI50 up to about 1.1 µM and inactive = higher.

Columns and labels:
Assay in all cases: DTP human tumour cell line panel, 48 h
SNB-78 = tested on: SNB-78
NCI-H23 = tested on: NCI-H23
KM12 = tested on: KM12
HCT-15 = tested on: HCT-15
UACC-257 = tested on: UACC-257
LXFL 529 = tested on: LXFL 529
ACHN = tested on: ACHN
NCI-H460 = tested on: NCI-H460
786-0 = tested on: 786-0
HT-29 = tested on: HT-29
IGROV-1 = tested on: IGROV-1
LOX IMVI = tested on: LOX IMVI
SF-539 = tested on: SF-539
K562 = tested on: K562
SR = tested on: SR
HL-60 = tested on: HL-60
HCT-116 = tested on: HCT-116
CAKI-1 = tested on: CAKI-1

Structure (SMILES) | GI50 (SNB-78) | GI50 (NCI-H23) | GI50 (KM12) | GI50 (HCT-15) [µM] | GI50 (UACC-257) | GI50 (LXFL 529) | GI50 (ACHN) | GI50 (NCI-H460) | GI50 (786-0) | GI50 (HT-29) | GI50 (IGROV-1) | GI50 (LOX IMVI) | GI50 (SF-539) | GI50 (K562) | GI50 (SR) | GI50 (HL-60) | GI50 (HCT-116) | GI50 (CAKI-1)
Cc1cc(C)n(-c2ccnc3cc(Cl)ccc23)n1 | > 100 µM (inactive) | > 100 µM (inactive) | > 100 µM (inactive) | > 100 | > 100 µM (inactive) | > 100 µM (inactive) | > 100 µM (inactive) | > 100 µM (inactive) | > 100 µM (inactive) | > 100 µM (inactive) | > 100 µM (inactive) | > 100 µM (inactive) | > 100 µM (inactive) | > 100 µM (inactive) | > 100 µM (inactive) | > 100 µM (inactive) | > 100 µM (inactive) | –
Cc1csc(=S)n1OC(=O)NC1CCCCC1 | 97.7 µM (inactive) | > 21.9 µM (inactive) | > 80.9 µM (inactive) | > 100 | > 60.1 µM (inactive) | 13.8 µM (inactive) | > 100 µM (inactive) | > 100 µM (inactive) | 19 µM (inactive) | > 48.9 µM (inactive) | > 100 µM (inactive) | 65.3 µM (inactive) | > 100 µM (inactive) | 31 µM (inactive) | 12.1 µM (inactive) | 17.9 µM (inactive) | > 58.2 µM (inactive) | > 100 µM (inactive)
Cc1ccc(NC(=S)SCCC(=O)O)cc1 | > 100 µM (inactive) | > 100 µM (inactive) | > 100 µM (inactive) | > 100 | > 100 µM (inactive) | > 100 µM (inactive) | > 100 µM (inactive) | > 100 µM (inactive) | > 100 µM (inactive) | > 100 µM (inactive) | – | > 100 µM (inactive) | > 100 µM (inactive) | > 100 µM (inactive) | > 100 µM (inactive) | > 100 µM (inactive) | > 100 µM (inactive) | 81.8 µM (inactive)
CCOc1ccc(NC2=NC(=O)C(CC(=O)Nc3ccccc3[N+](=O)[O-])S2)cc1 (configuration not stated) | > 100 µM (inactive) | > 100 µM (inactive) | – | > 100 | > 100 µM (inactive) | > 100 µM (inactive) | > 100 µM (inactive) | > 100 µM (inactive) | > 100 µM (inactive) | > 100 µM (inactive) | > 100 µM (inactive) | > 100 µM (inactive) | > 100 µM (inactive) | > 100 µM (inactive) | > 100 µM (inactive) | > 100 µM (inactive) | > 100 µM (inactive) | > 100 µM (inactive)
CCC12C=CCN3CCC4(c5cc(C6(C(=O)OC)CCCCCc7c6[nH]c6ccccc76)c(OC)cc5N(C)C4C(O)(C(=O)OC)C1OC(C)=O)C32 (configuration not stated) | 2.78 µM (inactive) | – | 2.55 µM (inactive) | 2.1 | – | 1.84 µM (inactive) | 1.61 µM (inactive) | 2.31 µM (inactive) | 2.29 µM (inactive) | 0.562 µM (active) | 2.16 µM (inactive) | 1.61 µM (inactive) | 2.25 µM (inactive) | 2.82 µM (inactive) | 2.54 µM (inactive) | 2.29 µM (inactive) | 2.9 µM (inactive) | 2.7 µM (inactive)
CCOC(=O)C(Cc1c[nH]c2cc([N+](=O)[O-])ccc12)NS(=O)(=O)c1ccc2ccccc2c1 (configuration not stated) | 20.7 µM (inactive) | 21.9 µM (inactive) | 17.1 µM (inactive) | 18.7 | 15.3 µM (inactive) | 17.5 µM (inactive) | 23.6 µM (inactive) | 18.1 µM (inactive) | 26.5 µM (inactive) | 17.2 µM (inactive) | 21.4 µM (inactive) | 17.5 µM (inactive) | 17.5 µM (inactive) | 18.1 µM (inactive) | 17.5 µM (inactive) | 22.8 µM (inactive) | 17.2 µM (inactive) | –
Nc1nc(N)c(-c2ccccc2)c(CCC(=O)Nc2ccc(Cl)cc2)n1 | > 100 µM (inactive) | > 100 µM (inactive) | > 100 µM (inactive) | > 100 | > 100 µM (inactive) | > 100 µM (inactive) | > 100 µM (inactive) | > 100 µM (inactive) | > 100 µM (inactive) | > 100 µM (inactive) | > 100 µM (inactive) | – | > 100 µM (inactive) | 76.2 µM (inactive) | > 100 µM (inactive) | > 100 µM (inactive) | > 100 µM (inactive) | > 100 µM (inactive)
COC1=CCC=C(C[C@@H]2NCCc3cc(OC)c(OC)cc32)C1 | > 100 µM (inactive) | > 100 µM (inactive) | > 100 µM (inactive) | > 100 | > 100 µM (inactive) | > 100 µM (inactive) | > 100 µM (inactive) | > 100 µM (inactive) | > 100 µM (inactive) | > 100 µM (inactive) | > 100 µM (inactive) | > 100 µM (inactive) | > 100 µM (inactive) | > 100 µM (inactive) | – | > 100 µM (inactive) | > 100 µM (inactive) | > 100 µM (inactive)
Cc1cccc(NC(=O)C(=O)C(C(=O)c2ccc3ccccc3c2)C2OC(=O)c3ccccc32)c1C (configuration not stated) | 16.1 µM (inactive) | 8.99 µM (inactive) | 20.8 µM (inactive) | 15.5 | 10.7 µM (inactive) | 9.55 µM (inactive) | 28.1 µM (inactive) | 9.16 µM (inactive) | 6.15 µM (inactive) | 28.1 µM (inactive) | 17.5 µM (inactive) | 13.2 µM (inactive) | 6.53 µM (inactive) | 15.7 µM (inactive) | – | 11.4 µM (inactive) | 9.68 µM (inactive) | 11.9 µM (inactive)
CCOC(=O)NC(=O)c1cn(C2OC(COC(=O)CCCCCCCCC(=O)OCC3OC(n4cc(C(=O)NC(=O)OCC)c(=O)[nH]c4=O)C4OC(C)(C)OC34)C3OC(C)(C)OC32)c(=O)[nH]c1=O (configuration not stated) | > 100 µM (inactive) | > 100 µM (inactive) | 73.8 µM (inactive) | > 100 | > 100 µM (inactive) | 88.5 µM (inactive) | > 100 µM (inactive) | > 100 µM (inactive) | > 100 µM (inactive) | 79.8 µM (inactive) | > 100 µM (inactive) | > 100 µM (inactive) | > 100 µM (inactive) | 40.8 µM (inactive) | 78.5 µM (inactive) | 63.5 µM (inactive) | 39.6 µM (inactive) | > 100 µM (inactive)
O=C(O)C1C2CCC(O2)C1C(=O)N1CCCCC1 (configuration not stated) | 16.7 µM (inactive) | 11.7 µM (inactive) | 16.2 µM (inactive) | 12.1 | 17.2 µM (inactive) | 5.02 µM (inactive) | 4.54 µM (inactive) | 12.8 µM (inactive) | 4.16 µM (inactive) | 4.07 µM (inactive) | 30.5 µM (inactive) | 10.2 µM (inactive) | 9.4 µM (inactive) | – | 3.68 µM (inactive) | – | 10.2 µM (inactive) | –
OCc1ccc(C2CC(c3ccco3)=NN2c2ccccc2)o1 (configuration not stated) | > 100 µM (inactive) | > 100 µM (inactive) | > 100 µM (inactive) | > 100 | – | > 100 µM (inactive) | > 100 µM (inactive) | > 100 µM (inactive) | > 100 µM (inactive) | > 100 µM (inactive) | > 100 µM (inactive) | > 100 µM (inactive) | > 100 µM (inactive) | 86.3 µM (inactive) | > 100 µM (inactive) | > 100 µM (inactive) | > 100 µM (inactive) | –
COc1cc2ccc3c4cc(OC)c(OC(C)C)cc4cnc3c2cc1OC | > 100 µM (inactive) | > 100 µM (inactive) | > 100 µM (inactive) | > 100 | > 100 µM (inactive) | > 100 µM (inactive) | > 100 µM (inactive) | > 100 µM (inactive) | > 100 µM (inactive) | > 100 µM (inactive) | > 100 µM (inactive) | > 100 µM (inactive) | > 100 µM (inactive) | > 100 µM (inactive) | > 100 µM (inactive) | > 100 µM (inactive) | > 100 µM (inactive) | > 100 µM (inactive)
CCOC(=O)NC(=O)c1cn(CCOC(=O)CCCCCCCCC(=O)OCCn2cc(C(=O)NC(=O)OCC)c(=O)[nH]c2=O)c(=O)[nH]c1=O | > 100 µM (inactive) | 23.9 µM (inactive) | > 100 µM (inactive) | > 100 | > 100 µM (inactive) | > 100 µM (inactive) | > 100 µM (inactive) | > 100 µM (inactive) | > 100 µM (inactive) | > 100 µM (inactive) | > 100 µM (inactive) | > 100 µM (inactive) | > 100 µM (inactive) | > 100 µM (inactive) | > 100 µM (inactive) | > 100 µM (inactive) | > 100 µM (inactive) | > 100 µM (inactive)
COC(=O)C1=C(C)N(NC(=O)c2cccc(Cl)c2)C(C)(O)C12CCOC2=O (configuration not stated) | 42.1 µM (inactive) | – | > 100 µM (inactive) | > 100 | > 100 µM (inactive) | > 100 µM (inactive) | > 100 µM (inactive) | > 100 µM (inactive) | > 100 µM (inactive) | > 100 µM (inactive) | > 100 µM (inactive) | > 100 µM (inactive) | > 100 µM (inactive) | > 100 µM (inactive) | > 100 µM (inactive) | – | > 100 µM (inactive) | > 100 µM (inactive)
COc1cc(C(C#N)NNC(=O)c2ccccc2O)ccc1O (configuration not stated) | 3.2 µM (inactive) | 2.07 µM (inactive) | 3.85 µM (inactive) | 4.06 | 6.35 µM (inactive) | 1.6 µM (inactive) | 0.873 µM (active) | 1.47 µM (inactive) | 2.7 µM (inactive) | 23.4 µM (inactive) | 1.54 µM (inactive) | 2.33 µM (inactive) | 3 µM (inactive) | 0.622 µM (active) | > 100 µM (inactive) | 2.45 µM (inactive) | 2.26 µM (inactive) | 5.46 µM (inactive)
